The values that follow come from article PMC8046379, “Fragment binding to the Nsp3 macrodomain of SARS-CoV-2 identified through crystallographic screening and computational docking” (Science Advances, 2021).

Where only a bound is given, the exact number is not on record here.

Usually Kd stands for the free concentration of one partner at which half of the binding sites on the other are occupied at equilibrium, for simple one-to-one binding. High values mean weaker binding, low ones tighter binding. As a reminder, the IC50 is the concentration needed to halve the response being measured.

What all share (assay type): binding
Assay [1] concerns the target T1, SARS-CoV-2 Nsp3 Mac1 (Severe acute respiratory syndrome coronavirus 2, UniProt P0DTD1). The note with it: fragments 0.188 to 3 mM concentration response.
Assay [2] concerns the target T1, SARS-CoV-2 Nsp3 Mac1. In words: biochemical.
The target in assay [3] is T1, SARS-CoV-2 Nsp3 Mac1. The experiment in a line: biochemical. The note with it: ADPr-peptide displacement from His6-Mac1; ± estimated SE.

Take `Cc1c(C)n(Cc2ccco2)c2ncnc(N)c12` [ZINC3888754]: the “effect on apparent melting temperature (Tma) in DSF, in words” value (“effect on apparent melting temperature” below) on SARS-CoV-2 Nsp3 Mac1 [1] was “stabilized Mac1”.
`Cn1cnc2c(N)nc(N)nc21` [ZINC26180281]: the “effect on apparent melting temperature” value at SARS-CoV-2 Nsp3 Mac1 [1] was “stabilized Mac1”. On SARS-CoV-2 Nsp3 Mac1 [2], this compound had a Kd of 2900 ± 700 µM. Moreover, the IC50 on SARS-CoV-2 Nsp3 Mac1 [3] was more than 2000 µM.
For the compound `CN(CC1CCCOC1)c1ncc(O)cn1` (stereo not drawn) [ZINC1337772170], the “effect on apparent melting temperature” value at SARS-CoV-2 Nsp3 Mac1 [1] was “not identified as binders”. Also, the half-inhibitory concentration (IC50) at SARS-CoV-2 Nsp3 Mac1 [3] is 971 µM.
For `Nc1nc2nccnc2c(=O)[nH]1` [pterin] the same measures were “not identified as binders” and 784 µM.
Turning to “adenosine diphosphate ribose [ADP-ribose, reference compound]”, at SARS-CoV-2 Nsp3 Mac1 [1], the “effect on apparent melting temperature” value is “substantial elevation”.
